Experiments:
[1] = tested on: Rice (Variety: Nipponbare); assay: Test for evaluating promotion of root growth by hydroponics of rice (Test Examples 1-3); assay type: in vivo; details: 1 ppm
Experimental: Rice (Variety: Nipponbare)
(§1) A DMSO solution, which contained one of the compounds 14, 18, 21, 23, 26, 28, 29, 30, 35, 36, 37, 39 and 40 of the present invention at a concentration of 100,000 ppm, was added to Hoagland hydroponic solution (Hoagland and Arnon, California Agricultural Experiment Station 1950 Circular 347 pp. 34) of ¼-fold concentration at a volume ratio of 1/10,000. In this manner, hydroponic solutions containing one of the compounds 14, 18, 21, 23, 26, 28, 29, 30, 35, 36, 37, 39 and 40 of the present invention at 10 ppm were prepared respectively. As an untreated control plot, a hydroponic solution obtained by adding DMSO to Hoagland hydroponic solution of ¼-fold concentration at a volume ratio of 1/10,000 was used.
(§2) Rice seeds were soaked in a 1% aqueous sodium hypochlorite solution for 10 minutes, then soaked in a 70% ethanol solution for surface sterilization, and then washed with distilled water. The sterilized seeds were soaked in a hydroponic solution containing the test compound described above at 10 ppm and incubated in a dark place for 3 days at 28° C. to perform treatment for hastening germination.
(§3) Thereafter, 30 ml of hydroponic solution containing the test compound at 10 ppm was dispensed in a plastic tube (diameter of 20 mm×height of 113 mm) of which the side was covered with cardboard to block light. A float prepared using a styrene board and vinyl mesh was floated, and the rice seeds that had undergone the treatment for hastening germination were placed on the float on the surface of the hydroponic solution. The seeds were cultivated for 3 days at 26° C., an illuminance of 4,000 lux of the top surface of the tube, a humidity of 50%, and a day length of 16 hours.
The nursery plants of rice obtained after cultivating were measured in terms of the length of seminal root by using WinRHIZO system (manufactured by Regent Instruments Inc). For each test plot, an average of the measured values of the seminal root of 4 or 5 individuals were determined.
as §1, with “compounds 7, 8, 9, 10, 12, 17, 20,” for “compounds 14, 18,”, “21, 25, 27,” for “21, 23, 26,”, “30, 34,” for “30,”, “37, 38,” for “37,”, “of 10,000” for “of 100,000”, “at 1” for “at 10”
as §2, with “at 1” for “at 10”
as §3, with “1” for “10”
The nursery plants of rice obtained after cultivation were measured in terms of the length of seminal root by using WinRHIZO system (manufactured by Regent Instruments Inc). […]

[2] = tested on: Nicotiana benthamiana; assay: Test for evaluating growth promotion under low-temperature stress by hydroponics of Nicotiana benthamiana (Test Examples 4-6); assay type: in vivo; details: compound at 0.1 ppm, 7 days at 1.5±1.0° C. low-temperature stress, then 3 days at 22° C., green leaf area vs untreated control, read-out: value of a relative leaf area (equation (1))
Experimental: A DMSO solution, which contained one of the compounds 5, 14, 22, 23, 24, 25, 26, 28, 30, 31, 32, 33, 34, 35, 38, 39 and 40 of the present invention at a concentration of 10,000 ppm, was prepared. The DMSO solution of the compound of the present invention was added at a volume ratio of 1/1,000 to the Murashige•Scoog medium of a ½-fold concentration (a medium containing 2.3 g of mixed salts (manufactured by Wako Pure Chemical Industries, Ltd.), 200 mg of Myo-inositol (manufactured by Sigma-Aldrich Co. LLC.), 2 mg of nicotinic acid (manufactured by Wako Pure Chemical Industries, Ltd.), 2 mg of pyridoxine hydrochloride (manufactured by Wako Pure Chemical Industries, Ltd.), 20 mg of thiamine hydrochloride (manufactured by Wako Pure Chemical Industries, Ltd.), 20 g of sucrose (manufactured by Wako Pure Chemical Industries, Ltd.), and 1 g of MES (manufactured by DOJINDO LABORATORIES) per 1 L of water and having pH adjusted to 5.8), thereby preparing a medium containing the compound of the present invention at a concentration of 10 ppm.
Seeds of Nicotiana benthamiana were seeded in the 5 μL of the medium and cultured overnight at 22° C. Thereafter, 45 μL of the medium containing the compound of the present invention at a concentration of 10 ppm was added thereto, and the seeds are cultivated for 7 days at 22° C., an illuminance of 4,000 lux, and a day length of 16 hours, thereby the nursery plants raised from the Nicotiana benthamiana were treated with the compound.
Moreover, instead of the above medium a test plot, which was obtained by performing the same treatment by using a medium prepared by adding DMSO to the Murashige•Scoog medium of ½-fold concentration at a volume ratio of 1/1,000, was used as a control plot not treated with the compound.
The nursery plants of the Nicotiana benthamiana treated with the compound were subjected to low-temperature treatment by being cultivated for 7 days at 1.5±1.0° C., an illuminance of 2,000 lux, and a day length of 16 hours.
The nursery plants of the Nicotiana benthamiana having undergone the low-temperature stress treatment were cultivated for 3 days at 22° C., an illuminance of 4,000 lux, and a day length of 16 hours. Thereafter, the area of green leaf was quantified by Scanalyzer HTS (manufactured by LemnaTec GmbH). Moreover, the value of the control plot not treated with the compound that had not yet been subjected to the low-temperature stress treatment was measured in the same manner. A value of a relative leaf area was calculated based on the following equation (1), and if the value of a relative leaf area was 5 or greater, the compound was evaluated to have a mitigating effect. As a result of the evaluation, it was confirmed that when the plant was treated with one of the compounds 5, 14, 22, 23, 24, 25, 26, 28, 30, 31, 32, 33, 34, 35, 38, 39 and 40 of the present invention at 10 ppm, the value of a relative leaf area was 5 or greater, compared to the area of green leaf of the control plot not treated with compound. Accordingly, it was confirmed that the treatment using the compound of the present invention brings about a growth promotion effect. Relative leaf area=100*(a green area of a plot treated with the compound of the present invention−a green area of a control plot not treated with the compound of the present invention)/(a green area of a control plot not treated with the compound of the present invention that has not yet been subjected to low-temperature stress treatment−a green area of a control plot not treated with the compound of the present invention) Equation (1): […]
A DMSO solution, which contained one of the compounds 6, 7, 8, 11, 12, 15, 19, 23, 24, 25, 28, 30, 31, 33, 34, 36, 37, 38 and 39 of the present invention at a concentration of 1,000 ppm, was prepared. […]

O=C(O)c1cccc2cc(C(F)(F)F)sc12 [Compound 9, 2-trifluoromethylbenzo[b]thiophene-7-carboxylic acid]
length of seminal root compared with the untreated control plot (in words) [1]: obviously longer
relative green leaf area after low-temperature stress at 0.1 ppm [2]: ≥ 5%

— patent US9872493B2, “Method for promoting plant growth” (SUMITOMO CHEMICAL COMPANY, LIMITED, priority 2012, dated 2018)
